In PMC11574108, “4-Furanylvinylquinoline derivative as a new scaffold for the design of oxidative stress initiator and glucose transporter inhibitor drugs” (Scientific Reports, 2024):
Read-outs that look alike come from different tables or passages of the source.

Legend:
Assay type in all cases: cell-based, human
HCT 116 p53+/+ spheroids = experiment: 3D spheroid cell viability assay; conditions: 3D spheroids, CellTiter-Glo 3D, 72-h treatment, read-out: IC50 HCT 116 p53+/+ (3D model)
Procedure: The HCT 116 cell lines, AsPC-1, PANC-1 (5,000), and U-251 cells (8,000) in 100 µL of medium were seeded in 96-well ULA Corning spheroid microplates (Sigma-Aldrich) and incubated for 72 h at 37 °C to form spheroids. The medium from each well was then gently removed and freshly prepared solutions of 13 were added. The treated spheroids were incubated for the next 72-h. Afterward, cell viability assays were performed using CellTiter-Glo 3D Reagent (Promega) according to the manufacturer’s protocol. Briefly, CellTiter-Glo 3D Reagent was added in equal volume to the medium in each well. The plate was vigorously mixed for 5 min and then incubated for 25 min at room temperature. The luminescence was measured using a multiplate reader (Synergy 4, BioTek). The experiment for each sample was performed at least three times. The results from the assay are presented as IC50 values, which were calculated using GraphPad Prism v.8.0 (USA).
To confirm the cytotoxicity ranking, the viability of the cells was also estimated on a 3D spheroid model, which better represented a solid tumour. […] The cell lines that represented pancreatic cancer were less responsive to derivative 13, which was similar to the 2D model. […]

HCT 116 p53+/+ = experiment: Apoptosis induction assay (Annexin V/7-AAD); conditions: 0.5 µM, 48 h; control nearly 6%
Procedure: (§1) The cells were seeded in 35 mm Petri dishes (200,000 per dish) and incubated at 37 °C overnight. The following day, the medium was changed for a freshly prepared 0.5 µM solution of 13. Analysis was carried out after 48 h using an FITC Annexin V Apoptosis Detection KIT with 7-AAD (Bio-Legend) according to the manufacturer’s protocol. In brief, both adherent and detached cells were collected, washed two times with cold PBS, and centrifuged at 300 g (5 min). Next, the cells were resuspended in 100 µL Annexin V Binding Buffer, 5 µL of FITC Annexin V, and 5 µL 7-AAD Viability Staining Solution. The samples were incubated in the dark for 15 min at room temperature. The percentage of live and apoptotic (sum of early and late apoptotic) cells was estimated using a Muse™ Cell Analyzer. The experiments were carried out three times.
(§2) Because derivative 13 affected the cell cycle progression, we decided to determine the type of induced cell death by focusing on the apoptosis pathway. The analysis was performed by measuring the green fluorescence of the annexin V – FITC dye conjugate using capillary flow cytometry. Positive staining is observed when the annexin V binds to the disintegrated membrane of apoptotic cells. […]

HCT 116 p53-/- = experiment: Apoptosis induction assay (Annexin V/7-AAD); conditions: 0.5 µM, 48 h; control nearly 6%
Procedure: as §1, §2

Fas = experiment: Western blot, Fas protein level
Procedure: The cells (500,000) were seeded in 35 mm Petri dishes (Nunc) and incubated in a solution of the tested compound (0.5 µM and 1 µM) for 24 h and 48 h. The cells were then dissociated using trypsin, collected in Eppendorf tubes, and centrifuged at 2,000 rpm. Next, cell pellets were resuspended in complete RIPA buffer containing a Halt Protease Inhibitor Cocktail and Halt Phosphatase Inhibitor Cocktail along with 0.5 M EDTA (all reagents from Thermo Fisher Scientific) and lysed on ice for 20 min. Afterward, the lysates were sonicated and centrifuged at 10,000 rpm for 10 min at 4 °C. The obtained supernatants were collected for further analysis. The protein concentration was determined using a Micro BCA™ Protein Assay Kit (Thermo Fisher Scientific) according to the manufacturer’s procedure. Equal amounts of proteins (16 µg) were electrophoresed on SDS-Page gels and transferred onto nitrocellulose membranes. Novex Sharp Pre-Stained Protein Standard (Thermo Fisher Scientific) was used as a colored molecular weight marker. The membranes were blocked in 5% non-fat milk prepared in TPBS (PBS supplemented by 0.1% Tween-20) for 1 h. After blocking, the membranes were cut, and then incubated with specific primary monoclonal antibodies (all purchased from Cell Signaling) overnight at 4 °C. […]

**Q.** What does the source list for O=[N+]([O-])c1ccc(/C=C/c2ccnc3ccccc23)o1 [Compound 13]?
**A.** IC50 (HCT 116 p53+/+ spheroids): 1160 ± 190 nM; IC50 (HCT 116 p53+/+ spheroids; Homo sapiens, HCT-116, 72 h): ~1000 nM; percentage of apoptotic cells (HCT 116 p53+/+): 40%; percentage of apoptotic cells (HCT 116 p53-/-): 30%; Fas protein level vs control (Fas; HCT 116 p53+/+, 24-h): more than three-fold increase; Fas protein expression vs untreated cells (Fas; HCT 116 p53-/-, 48-h): four times higher
